In the supplement of paper PMC10307832:

Tests used:
Experiment in all cases: relative viability (nuclei count vs DMSO), 5 days (fraction); higher = more cells survive
Ibrutinib + Phenformin = compound: C=CC(=O)N1CCC[C@@H](n2nc(-c3ccc(Oc4ccccc4)cc3)c3c(N)ncnc32)C1 [Ibrutinib] + N=C(N)NC(=N)NCCc1ccccc1 [Phenformin] (partner 250 µM)
Summary of the method: (§1)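 Cells from lung cancer lines were seeded into 1536-well plates and, one day later, dosed by pin tool. Treatments were either a single drug or a fixed dose of an anchor drug with five library-drug doses (not always all listed) in √10 steps. After 5 days, nuclei were stained in a one-step fixation (final 0.05% Triton X-100, 1% formaldehyde, 1 ug/ml Hoechst) and counted on 4× images, and relative viability is the treated-to-vehicle nuclei ratio, as the median of duplicate plates.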

BMX-IN-1 + Trametinib = compound: C=CC(=O)Nc1cc(-n2c(=O)ccc3cnc4ccc(-c5ccc(NS(C)(=O)=O)cc5)cc4c32)ccc1C [BMX-IN-1] + CC(=O)Nc1cccc(-n2c(=O)n(C3CC3)c(=O)c3c(Nc4ccc(I)cc4F)n(C)c(=O)c(C)c32)c1 [Trametinib] (partner 0.02 µM)
Summary of the method: as §1

BMX-IN-1 + Alpelisib = compound: C=CC(=O)Nc1cc(-n2c(=O)ccc3cnc4ccc(-c5ccc(NS(C)(=O)=O)cc5)cc4c32)ccc1C [BMX-IN-1] + Cc1nc(NC(=O)N2CCC[C@H]2C(N)=O)sc1-c1ccnc(C(C)(C)C(F)(F)F)c1 [Alpelisib] (partner 2 µM)
Summary of the method: as §1

PAC-1 + Dasatinib = compound: C=CCc1cccc(/C=N/NC(=O)CN2CCN(Cc3ccccc3)CC2)c1O [PAC-1] + Cc1nc(Nc2ncc(C(=O)Nc3c(C)cccc3Cl)s2)cc(N2CCN(CCO)CC2)n1 [Dasatinib] (partner 0.075 µM)
Summary of the method: as §1

Cell Line	relative viability (Ibrutinib + Phenformin; first compound 0.01581 µM)	relative viability (Ibrutinib + Phenformin; first compound 0.05 µM)	relative viability (Ibrutinib + Phenformin; first compound 0.1581 µM)	relative viability (Ibrutinib + Phenformin; first compound 0.5 µM)	relative viability (BMX-IN-1 + Trametinib; first compound 0.02 µM)	relative viability (BMX-IN-1 + Trametinib; first compound 0.2 µM)	relative viability (BMX-IN-1 + Trametinib; first compound 0.6325 µM)	relative viability (BMX-IN-1 + Trametinib; first compound 2 µM)	relative viability (BMX-IN-1 + Alpelisib; first compound 0.02 µM)	relative viability (BMX-IN-1 + Alpelisib; first compound 0.2 µM)	relative viability (BMX-IN-1 + Alpelisib; first compound 0.6325 µM)	relative viability (BMX-IN-1 + Alpelisib; first compound 2 µM)	relative viability (PAC-1 + Dasatinib; first compound 0.02 µM)	relative viability (PAC-1 + Dasatinib; first compound 0.06325 µM)	relative viability (PAC-1 + Dasatinib; first compound 0.2 µM)	relative viability (PAC-1 + Dasatinib; first compound 2 µM)	relative viability (Ibrutinib + Phenformin; first compound 0.005 µM)
NCI-H596	0.635	0.704	0.607	0.635	0.718	0.912	0.652	0.825	0.511	0.535	0.544	0.54	0.571	0.659	0.573	0.664	–
NCI-H647	0.467	0.411	0.592	0.605	0.702	0.563	0.467	0.474	1.25	1.32	1.36	0.974	0.203	0.172	0.185	0.164	–
NCI-H650	0.456	0.372	0.492	0.493	1.01	0.912	0.979	0.919	1.2	1.19	1.27	1.1	0.426	0.455	0.406	0.45	0.457
NCI-H661	0.281	0.252	0.287	0.271	0.634	0.597	0.642	0.535	0.675	0.889	0.758	0.692	0.992	1	0.89	0.892	0.26
NCI-H727	0.612	0.546	–	0.401	0.419	0.429	0.387	0.4	0.499	0.671	0.766	0.578	0.334	0.338	0.368	0.358	–
NCI-H838	0.491	0.581	0.519	0.537	0.605	0.518	0.562	0.568	1.18	0.961	1.06	1.04	0.247	0.278	0.243	0.311	0.492
NCI-H1355	0.463	0.485	0.469	0.427	0.385	0.459	0.463	0.45	0.906	0.943	0.865	0.786	0.75	0.722	0.667	0.711	0.419
NCI-H1395	0.404	0.468	0.442	0.405	1.19	1.12	0.958	0.966	1.07	1.05	1.15	0.962	0.403	0.476	0.387	0.422	0.281
NCI-H1437	0.3	0.318	0.317	0.314	0.677	0.489	0.605	0.614	1.26	0.953	1.1	1.05	0.298	0.425	0.459	0.278	0.352
NCI-H1651	0.262	0.295	0.308	0.252	0.866	0.908	0.879	0.893	1.07	1.06	0.943	0.863	0.391	0.446	0.394	0.393	0.34
NCI-H1666	0.59	0.547	0.561	0.571	0.788	1.06	0.977	0.885	1.03	1.02	1.13	1.08	0.834	0.845	0.793	0.836	0.597
NCI-H1734	0.349	0.419	0.355	0.381	0.732	0.751	0.735	0.7	0.668	0.717	0.783	0.652	0.361	0.521	0.397	0.51	0.338
NCI-H1755	0.624	0.65	0.627	0.665	0.703	0.81	0.853	0.695	1.01	1.23	1.06	0.965	0.426	0.446	0.384	0.443	0.667
NCI-H1792	0.449	–	0.206	0.171	0.645	0.485	0.44	0.391	0.585	0.473	0.579	0.684	0.996	0.77	0.763	0.755	–
NCI-H1793	0.313	0.281	0.318	0.282	0.544	0.454	0.505	0.454	1.14	0.873	0.665	0.563	0.373	0.373	0.364	0.412	–
NCI-H1915	0.351	0.367	0.421	0.373	0.326	0.302	0.519	0.317	1.08	1.03	1.04	1.13	0.313	0.336	0.317	0.29	0.401
NCI-H1944	0.176	0.195	0.177	0.182	0.395	0.416	0.419	0.392	0.858	0.931	0.921	0.798	0.209	0.222	0.204	0.216	0.202
NCI-H1975	0.372	0.379	0.416	0.215	0.309	0.348	0.395	0.377	0.714	0.686	0.664	0.592	0.358	0.363	0.336	0.347	0.452

Cell Line	relative viability (Ibrutinib + Phenformin; first compound 0.01581 µM)	relative viability (Ibrutinib + Phenformin; first compound 0.05 µM)	relative viability (Ibrutinib + Phenformin; first compound 0.1581 µM)	relative viability (Ibrutinib + Phenformin; first compound 0.5 µM)	relative viability (BMX-IN-1 + Trametinib; first compound 0.02 µM)	relative viability (BMX-IN-1 + Trametinib; first compound 0.2 µM)	relative viability (BMX-IN-1 + Trametinib; first compound 0.6325 µM)	relative viability (BMX-IN-1 + Trametinib; first compound 2 µM)	relative viability (BMX-IN-1 + Alpelisib; first compound 0.02 µM)	relative viability (BMX-IN-1 + Alpelisib; first compound 0.2 µM)	relative viability (BMX-IN-1 + Alpelisib; first compound 0.6325 µM)	relative viability (BMX-IN-1 + Alpelisib; first compound 2 µM)	relative viability (PAC-1 + Dasatinib; first compound 0.02 µM)	relative viability (PAC-1 + Dasatinib; first compound 0.06325 µM)	relative viability (PAC-1 + Dasatinib; first compound 0.2 µM)	relative viability (PAC-1 + Dasatinib; first compound 2 µM)	relative viability (Ibrutinib + Phenformin; first compound 0.005 µM)
NCI-H1993	0.575	0.534	0.509	0.624	0.531	0.588	0.464	0.56	0.811	0.752	–	0.668	0.65	0.611	0.421	0.483	0.487
NCI-H2009	0.476	0.518	0.476	0.499	0.254	0.251	0.239	0.29	1.05	1.33	1.25	1.18	0.267	0.305	0.291	0.334	0.558
NCI-H2023	0.392	0.402	0.45	0.357	0.586	0.564	0.623	0.539	0.617	0.675	0.686	0.627	0.553	0.615	0.42	0.55	0.376
NCI-H2085	0.691	0.616	0.589	0.495	0.52	0.75	0.564	0.538	0.944	0.981	0.834	0.917	0.225	0.234	0.285	0.213	0.584
NCI-H2087	0.46	0.493	–	0.427	0.204	0.174	0.214	0.218	1.12	1.28	1.32	1.24	0.915	0.848	0.798	0.78	0.494
NCI-H2126	0.474	0.495	0.551	0.52	0.55	0.55	0.592	0.603	0.763	0.748	0.827	0.77	0.615	0.584	0.642	0.615	0.485
NCI-H2170	0.42	0.395	0.39	0.36	0.951	1.02	1.09	0.906	0.91	0.859	0.921	0.821	0.499	0.506	0.625	0.712	0.431
NCI-H2228	–	0.346	0.263	0.285	0.41	0.596	0.481	0.488	0.906	1.04	1.16	0.822	0.506	0.505	0.537	0.501	0.378
NCI-H2347	0.447	0.332	0.294	0.239	0.295	0.291	0.322	0.292	1.25	1.07	1.16	0.974	0.28	0.3	0.312	0.362	–
NCI-H2405	0.384	0.387	0.264	0.369	0.688	0.642	0.659	0.591	0.816	0.755	0.747	0.766	0.173	0.221	0.207	0.176	0.383
NCI-H3122	0.359	0.414	0.358	0.406	0.228	0.253	0.238	0.272	0.815	0.879	0.657	0.812	0.828	0.811	0.857	0.764	0.363
PC-3 [JPC-3]	0.452	0.467	0.473	0.391	0.697	0.712	0.738	0.677	1.17	1.06	1.09	1.09	1.06	0.986	0.981	0.975	0.47
PC-14	0.512	0.429	0.357	0.174	0.814	1.01	0.927	0.793	1.08	1.03	0.981	0.983	0.248	0.265	0.279	0.249	0.589
RERF-LC-KJ	0.389	0.379	0.407	0.356	0.967	0.897	0.867	0.909	0.787	0.868	0.856	0.899	0.826	0.812	0.775	0.786	0.394
SK-LU-1	0.542	0.585	0.545	0.485	0.381	0.522	0.481	0.403	1	1.05	0.964	1.06	0.208	0.173	0.185	0.181	0.433
SW 1573	0.345	0.477	0.406	0.423	0.657	0.719	0.624	0.507	0.913	0.882	0.8	0.798	0.537	0.561	0.44	0.52	0.317
UMC-11	0.312	0.316	0.337	0.362	0.831	0.727	0.763	0.738	1.16	1.28	1.08	0.98	0.483	0.484	0.462	0.437	0.29
